Source: PubChem BioAssay (NCI)
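Interpolation was linear, between the two tested concentrations surrounding the appropriate level; five concentrations were tested over 48 hours in 96-well plates. TGI marks complete inhibition of growth.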

Experiments:
Test in all cases: NCI anticancer screen, dose series, 48 h
CCRF-CEM leukemia = system: CCRF-CEM leukemia
SK-MEL-28 melanoma = system: SK-MEL-28 melanoma
K-562 leukemia = system: K-562 leukemia
A498 renal = system: A498 renal
786-0 renal = system: 786-0 renal
RPMI-8226 leukemia = system: RPMI-8226 leukemia
OVCAR-4 ovarian = system: OVCAR-4 ovarian
A549 NSCLC = system: A549 NSCLC
M14 melanoma = system: M14 melanoma
NCI-H23 lung = system: NCI-H23 lung
OVCAR-5 ovarian = system: OVCAR-5 ovarian
SK-MEL-5 melanoma = system: SK-MEL-5 melanoma
UACC-257 melanoma = system: UACC-257 melanoma
PC-3 prostate = system: PC-3 prostate
OVCAR-8 ovarian = system: OVCAR-8 ovarian
IGROV1 ovarian = system: IGROV1 ovarian
MALME-3M melanoma = system: MALME-3M melanoma
TK-10 renal = system: TK-10 renal
MDA-MB-435 = system: MDA-MB-435
ACHN renal = system: ACHN renal
NCI-H522 lung = system: NCI-H522 lung
HL-60(TB) leukemia = system: HL-60(TB) leukemia
MDA-MB-231 breast = system: MDA-MB-231 breast
SNB-19 CNS = system: SNB-19 CNS
NCI-H460 lung = system: NCI-H460 lung
HCC-2998 colon = system: HCC-2998 colon
SF-295 CNS = system: SF-295 CNS
HOP-62 NSCLC = system: HOP-62 NSCLC
T-47D breast = system: T-47D breast
HS 578T breast = system: HS 578T breast
DU-145 prostate = system: DU-145 prostate
MOLT-4 leukemia = system: MOLT-4 leukemia
EKVX NSCLC = system: EKVX NSCLC
COLO 205 colon = system: COLO 205 colon
HCT-15 colon = system: HCT-15 colon
CAKI-1 renal = system: CAKI-1 renal
UO-31 renal = system: UO-31 renal
SF-268 CNS = system: SF-268 CNS
MDA-N = system: MDA-N
SN12C renal = system: SN12C renal
HCT-116 colon = system: HCT-116 colon
NCI/ADR-RES ovarian = system: NCI/ADR-RES ovarian
HT29 colon = system: HT29 colon
RXF 393 renal = system: RXF 393 renal
KM12 colon = system: KM12 colon
SF-539 CNS = system: SF-539 CNS
U251 CNS = system: U251 CNS
LOX IMVI melanoma = system: LOX IMVI melanoma
SNB-75 CNS = system: SNB-75 CNS
NCI-H226 lung = system: NCI-H226 lung
OVCAR-3 ovarian = system: OVCAR-3 ovarian
SW-620 colon = system: SW-620 colon
SR leukemia = system: SR leukemia
SK-OV-3 ovarian = system: SK-OV-3 ovarian
UACC-62 melanoma = system: UACC-62 melanoma
MCF7 breast = system: MCF7 breast

With `CN(C)Cc1cc(C(=O)/C=C/c2ccc(Br)cc2)cc(CN(C)C)c1O` the TGI (CCRF-CEM leukemia) was 26.7 µM, the TGI (SK-MEL-28 melanoma) was 25.3 µM and the TGI (K-562 leukemia) was 10.8 µM. The TGI (A498 renal) was 30.4 µM, the TGI (786-0 renal) was 19 µM and the TGI (RPMI-8226 leukemia) was 26.8 µM. It also gave a TGI (OVCAR-4 ovarian) of 28.8 µM, a TGI (A549 NSCLC) of 26.2 µM and a TGI (M14 melanoma) of 22.1 µM. The TGI (NCI-H23 lung) was 33 µM, the TGI (OVCAR-5 ovarian) was 34 µM and the TGI (SK-MEL-5 melanoma) was 28.5 µM. The TGI (UACC-257 melanoma) was 19.5 µM, the TGI (PC-3 prostate) was 10.2 µM and the TGI (OVCAR-8 ovarian) was 20.8 µM. It also gave a TGI (IGROV1 ovarian) of 26.3 µM, a TGI (MALME-3M melanoma) of 34.6 µM and a TGI (TK-10 renal) of 27.4 µM. For the same compound, the TGI (MDA-MB-435) was 37.9 µM, the TGI (ACHN renal) was 15 µM and the TGI (NCI-H522 lung) was 12.6 µM. The TGI (HL-60(TB) leukemia) was 20.5 µM, the TGI (MDA-MB-231 breast) was 12.1 µM and the TGI (SNB-19 CNS) was 26.6 µM. The TGI (NCI-H460 lung) was 21.9 µM, the TGI (HCC-2998 colon) was 27.8 µM and the TGI (SF-295 CNS) was 19 µM. It also gave a TGI (HOP-62 NSCLC) of 17.2 µM, a TGI (T-47D breast) of 37.9 µM and a TGI (HS 578T breast) of 45.1 µM. It also gave a TGI (DU-145 prostate) of 25.1 µM, a TGI (MOLT-4 leukemia) of 19.6 µM and a TGI (EKVX NSCLC) of 36.3 µM. The TGI (COLO 205 colon) was 3.28 µM, the TGI (HCT-15 colon) was 25.3 µM and the TGI (CAKI-1 renal) was 6.34 µM. For the same compound, the TGI (UO-31 renal) was 9.04 µM, the TGI (SF-268 CNS) was 50.3 µM and the TGI (MDA-N) was 9.81 µM. For the same compound, the TGI (SN12C renal) was 14.8 µM, the TGI (HCT-116 colon) was 19.9 µM and the TGI (NCI/ADR-RES ovarian) was greater than 100 µM. It also gave a TGI (HT29 colon) of 12.5 µM, a TGI (RXF 393 renal) of 17.1 µM and a TGI (KM12 colon) of 5.88 µM. It also gave a TGI (SF-539 CNS) of 31.9 µM, a TGI (U251 CNS) of 33.5 µM and a TGI (LOX IMVI melanoma) of 5.43 µM. The TGI (SNB-75 CNS) was 35.3 µM, the TGI (NCI-H226 lung) was 35.9 µM and the TGI (OVCAR-3 ovarian) was 17 µM. It also gave a TGI (SW-620 colon) of 16 µM and a TGI (SR leukemia) of 50.6 µM.

`Nc1ccc(OCC(O)N2C(=O)c3ccccc3C2=O)cc1` (configuration not stated) showed a TGI (CCRF-CEM leukemia) greater than 100 µM, a TGI (SK-MEL-28 melanoma) greater than 100 µM and a TGI (K-562 leukemia) greater than 100 µM. It also gave a TGI (RPMI-8226 leukemia) greater than 100 µM, a TGI (OVCAR-4 ovarian) greater than 100 µM and a TGI (A549 NSCLC) greater than 100 µM. It also gave a TGI (M14 melanoma) greater than 100 µM, a TGI (OVCAR-5 ovarian) greater than 100 µM and a TGI (SK-MEL-5 melanoma) greater than 100 µM. It also gave a TGI (UACC-257 melanoma) greater than 100 µM, a TGI (PC-3 prostate) greater than 100 µM and a TGI (OVCAR-8 ovarian) greater than 100 µM. It also gave a TGI (IGROV1 ovarian) greater than 100 µM, a TGI (MALME-3M melanoma) greater than 100 µM and a TGI (TK-10 renal) greater than 100 µM. It also gave a TGI (MDA-MB-435) greater than 100 µM, a TGI (ACHN renal) greater than 100 µM and a TGI (NCI-H522 lung) greater than 100 µM. For the same compound, the TGI (HL-60(TB) leukemia) was greater than 100 µM, the TGI (MDA-MB-231 breast) was greater than 100 µM and the TGI (SNB-19 CNS) was greater than 100 µM. It also gave a TGI (NCI-H460 lung) greater than 100 µM, a TGI (HCC-2998 colon) greater than 100 µM and a TGI (SF-295 CNS) greater than 100 µM. It also gave a TGI (HOP-62 NSCLC) greater than 100 µM, a TGI (T-47D breast) greater than 100 µM and a TGI (DU-145 prostate) greater than 100 µM. The TGI (MOLT-4 leukemia) was greater than 100 µM, the TGI (EKVX NSCLC) was greater than 100 µM and the TGI (COLO 205 colon) was greater than 100 µM. For the same compound, the TGI (HCT-15 colon) was greater than 100 µM, the TGI (UO-31 renal) was greater than 100 µM and the TGI (SF-268 CNS) was greater than 100 µM. It also gave a TGI (MDA-N) greater than 100 µM, a TGI (HCT-116 colon) greater than 100 µM and a TGI (SK-OV-3 ovarian) greater than 100 µM. The TGI (NCI/ADR-RES ovarian) was greater than 100 µM, the TGI (HT29 colon) was greater than 100 µM and the TGI (U251 CNS) was greater than 100 µM. The TGI (LOX IMVI melanoma) was greater than 100 µM, the TGI (UACC-62 melanoma) was greater than 100 µM and the TGI (OVCAR-3 ovarian) was greater than 100 µM. It also gave a TGI (MCF7 breast) greater than 100 µM and a TGI (SW-620 colon) greater than 100 µM.
